Assay results: ChEMBL document CHEMBL5108033, “Salidroside attenuates sepsis-associated acute lung injury through PPP1R15A mediated endoplasmic reticulum stress inhibition” (2022)
The source made the active and inactive calls. The calls are words filed in the database; no cut-off is given here.

Assays:
Rattus norvegicus [1] = test: Protection against cecal ligation-induced Sprague-Dawley rat sepsis associated acute lung injury model assessed as downregulation of cecal ligation induced CHOP level at 50 mg/kg, ip and measured after 24 hrs; type: functional, organism-based
Rattus norvegicus [2] = test: Protection against cecal ligation-induced Sprague-Dawley rat sepsis associated acute lung injury model assessed as reduction in serum IL-1beta at 50 mg/kg, ip and measured after 24 hrs by ELISA; type: functional, organism-based
Rattus norvegicus [3] = test: Protection against cecal ligation-induced Sprague-Dawley rat sepsis associated acute lung injury model assessed as reduction in lung wet weight to dry weight ratio at 50 mg/kg, ip and measured after 24 hrs; type: functional, organism-based
Rattus norvegicus [4] = test: Protection against cecal ligation-induced Sprague-Dawley rat sepsis associated acute lung injury model assessed as downregulation of cecal ligation induced phosphorylated eIF-2alpha level at 50 mg/kg, ip and measured after 24 hrs; type: functional, organism-based
Rattus norvegicus [5] = test: Protection against cecal ligation-induced Sprague-Dawley rat sepsis associated acute lung injury model assessed as reduction in neutrophil number in BALF at 50 mg/kg, ip and measured after 24 hrs by cell counter analysis; type: functional, organism-based
Rattus norvegicus [6] = test: Protection against cecal ligation-induced Sprague-Dawley rat sepsis associated acute lung injury model assessed as reduction in neutrophil elastase activity in BALF at 50 mg/kg, ip and measured after 24 hrs by Elastase assay; type: functional, organism-based
Rattus norvegicus [7] = test: Protection against cecal ligation-induced Sprague-Dawley rat sepsis associated acute lung injury model assessed as upregulation of cecal ligation inhibited PPP1R15A at 50 mg/kg, ip and measured after 24 hrs; type: functional, organism-based
Rattus norvegicus [8] = test: Protection against cecal ligation-induced Sprague-Dawley rat sepsis associated acute lung injury model assessed as reduction in total cell number in BALF at 50 mg/kg, ip and measured after 24 hrs by cell counter analysis; type: functional, organism-based
Rattus norvegicus [9] = test: Protection against cecal ligation-induced Sprague-Dawley rat sepsis associated acute lung injury model assessed as reduction in serum IL-6 at 50 mg/kg, ip and measured after 24 hrs by ELISA; type: functional, organism-based
Rattus norvegicus [10] = test: Protection against cecal ligation-induced Sprague-Dawley rat sepsis associated acute lung injury model assessed as reduction in lung injury at 50 mg/kg, ip and measured after 24 hrs by H and E staining based analysis; type: functional, organism-based
Rattus norvegicus [11] = test: Protection against cecal ligation-induced Sprague-Dawley rat sepsis associated acute lung injury model assessed as reduction in serum TNF-alpha at 50 mg/kg, ip and measured after 24 hrs by ELISA; type: functional, organism-based
Rattus norvegicus [12] = test: Protection against cecal ligation-induced Sprague-Dawley rat sepsis associated acute lung injury model assessed as reduction in lung water content at 50 mg/kg, ip and measured after 24 hrs; type: functional, organism-based
Rattus norvegicus [13] = test: Protection against cecal ligation-induced Sprague-Dawley rat sepsis associated acute lung injury model assessed as reduction in albumin content in alveolar lavage fluid supernatant at 50 mg/kg, ip and measured after 24 hrs; type: functional, organism-based
Rattus norvegicus [14] = test: Protection against cecal ligation-induced Sprague-Dawley rat sepsis associated acute lung injury model assessed as downregulation of cecal ligation induced GRP78 level at 50 mg/kg, ip and measured after 24 hrs; type: functional, organism-based
Rattus norvegicus [15] = test: Protection against cecal ligation-induced Sprague-Dawley rat sepsis associated acute lung injury model assessed as downregulation of cecal ligation induced ATF4 level at 50 mg/kg, ip and measured after 24 hrs; type: functional, organism-based
Epithelial cell [16] = test: Induction of apoptosis in LPS-stimulated human HBE cells with silenced PPP1R15A assessed as necrotic cells at 40 uM incubated for 1 hr by AnnexinV-FITC/PI staining based flow cytometric analysis (Rvb=0.518%); type: functional
Epithelial cell [17] = test: Inhibition of apoptosis in LPS-stimulated human HBE cells with silenced PPP1R15A assessed as necrotic cells at 40 uM incubated for 1 hr in presence of TUDCA by AnnexinV-FITC/PI staining based flow cytometric analysis (Rvb=2.48%); type: functional; parameters: scale not given: the % may be the effect or the level left
Epithelial cell [18] = test: Induction of apoptosis in LPS-stimulated human HBE cells with silenced PPP1R15A assessed as late apoptotic cells at 40 uM incubated for 1 hr by AnnexinV-FITC/PI staining based flow cytometric analysis (Rvb=2.30%); type: functional
Epithelial cell [19] = test: Downregulation of phosphorylated eIF-2alpha expression in LPS-stimulated human HBE cells at 40 uM incubated for 1 hr by western blot analysis; type: functional, cell-based
Epithelial cell [20] = test: Upregulation of PPP1R15A expression in LPS-stimulated human HBE cells assessed as inhibition of LPS down regulated PPP1R15A expression at 40 uM incubated for 1 hrs by qRT-PCR analysis; type: functional, cell-based
Epithelial cell [21] = test: Downregulation of GRP78 in LPS-stimulated human HBE cells with silenced PPP1R15A at 40 uM incubated for 1 hr in presence of TUDCA by western blot analysis; type: functional, cell-based
Epithelial cell [22] = test: Inhibition of apoptosis in LPS-stimulated human HBE cells with silenced PPP1R15A assessed as necrotic cells at 40 uM incubated for 1 hr in presence of TUDCA by AnnexinV-FITC/PI staining based flow cytometric analysis (Rvb=83.2%); type: functional; parameters: scale not given: the % may be the effect or the level left
Epithelial cell [23] = test: Inhibition of apoptosis in LPS-stimulated human HBE cells with silenced PPP1R15A assessed as late apoptotic cells at 40 uM incubated for 1 hr in presence of TUDCA by AnnexinV-FITC/PI staining based flow cytometric analysis (Rvb=5.08%); type: functional; parameters: scale not given: the % may be the effect or the level left
Epithelial cell [24] = test: Cytotoxicity against LPS-stimulated human HBE cells assessed as increase in cell viability at 40 uM and measured for 24 to 72 hrs by CCK-8 assay; type: functional, cell-based; conditions: time 24-72 hrs
Epithelial cell [25] = test: Downregulation of GRP78 expression in LPS-stimulated human HBE cells at 40 uM incubated for 1 hr by western blot analysis; type: functional, cell-based
Epithelial cell [26] = test: Inhibition of apoptosis in LPS-stimulated human HBE cells assessed as late apoptotic cells at 40 uM incubated for 1 hr by AnnexinV-FITC/PI staining based flow cytometric analysis (Rvb=5.75%); type: functional; parameters: scale not given: the % may be the effect or the level left
Epithelial cell [27] = test: Cytotoxicity against LPS-stimulated human HBE cells with silenced PPP1R15A assessed as increase in cell viability at 40 uM and measured for 24 to 72 hrs in presence of TUDCA by CCK-8 assay; type: functional, cell-based; conditions: time 24-72 hrs
Epithelial cell [28] = test: Downregulation of CHOP in LPS-stimulated human HBE cells with silenced PPP1R15A at 40 uM incubated for 1 hr in presence of TUDCA by western blot analysis; type: functional, cell-based
Epithelial cell [29] = test: Downregulation of ATF4 in LPS-stimulated human HBE cells with silenced PPP1R15A at 40 uM incubated for 1 hr in presence of TUDCA by western blot analysis; type: functional, cell-based
Epithelial cell [30] = test: Inhibition of apoptosis in LPS-stimulated human HBE cells assessed as viable cells at 40 uM incubated for 1 hr by AnnexinV-FITC/PI staining based flow cytometric analysis (Rvb=72.3%); type: functional; conditions: read-out: Activity
Epithelial cell [31] = test: Induction of apoptosis in LPS-stimulated human HBE cells with silenced PPP1R15A assessed as early apoptotic cells at 40 uM incubated for 1 hr by AnnexinV-FITC/PI staining based flow cytometric analysis (Rvb=11%); type: functional
Epithelial cell [32] = test: Inhibition of apoptosis in LPS-stimulated human HBE cells assessed as necrotic cells at 40 uM incubated for 1 hr by AnnexinV-FITC/PI staining based flow cytometric analysis (Rvb=0.444%); type: functional; parameters: scale not given: the % may be the effect or the level left
Epithelial cell [33] = test: Downregulation of CHOP expression in LPS-stimulated human HBE cells at 40 uM incubated for 1 hr by western blot analysis; type: functional, cell-based
Epithelial cell [34] = test: Downregulation of phosphorylated eIF-2alpha expression in LPS-stimulated human HBE cells with silenced PPP1R15A at 40 uM incubated for 1 hr in presence of TUDCA by western blot analysis; type: functional, cell-based
Epithelial cell [35] = test: Inhibition of apoptosis in LPS-stimulated human HBE cells assessed as early apoptotic cells at 40 uM incubated for 1 hr by AnnexinV-FITC/PI staining based flow cytometric analysis (Rvb=21.5%); type: functional; parameters: scale not given: the % may be the effect or the level left
Epithelial cell [36] = test: Inhibition of apoptosis in LPS-stimulated human HBE cells with silenced PPP1R15A assessed as early apoptotic cells at 40 uM incubated for 1 hr in presence of TUDCA by AnnexinV-FITC/PI staining based flow cytometric analysis (Rvb=9.22%); type: functional; parameters: scale not given: the % may be the effect or the level left
Epithelial cell [37] = test: Downregulation of ATF4 expression in LPS-stimulated human HBE cells at 40 uM incubated for 1 hr by western blot analysis; type: functional, cell-based
Epithelial cell [38] = test: Induction of apoptosis in LPS-stimulated human HBE cells with silenced PPP1R15A assessed as late apoptotic cells at 40 uM incubated for 1 hr by AnnexinV-FITC/PI staining based flow cytometric analysis (Rvb=85.7%); type: functional

Structure (SMILES): C[C@@H]1C[C@H]2[C@@H]3CCC4=CC(=O)C=C[C@]4(C)[C@@]3(F)[C@@H](O)C[C@]2(C)[C@@]1(O)C(=O)CO
- Activity (Rattus norvegicus [1]): Active
- Activity (Rattus norvegicus [2]): Active
- Activity (Rattus norvegicus [3]): Active
- Activity (Rattus norvegicus [4]): Active
- Activity (Rattus norvegicus [5]): Active
- Activity (Rattus norvegicus [6]): Active
- Activity (Rattus norvegicus [7]): Active
- Activity (Rattus norvegicus [8]): Active
- Activity (Rattus norvegicus [9]): Active
- Activity (Rattus norvegicus [10]): Active
- Activity (Rattus norvegicus [11]): Active
- Activity (Rattus norvegicus [12]): Active
- Activity (Rattus norvegicus [13]): Active
- Activity (Rattus norvegicus [14]): Active
- Activity (Rattus norvegicus [15]): Active

Structure (SMILES): OC[C@H]1O[C@@H](OCCc2ccc(O)cc2)[C@H](O)[C@@H](O)[C@@H]1O [SALIDROSIDE]
- Activity (Rattus norvegicus [1]): Active
- Activity (Epithelial cell [16]): 0.436%
- Activity (Rattus norvegicus [2]): Active
- Activity (Epithelial cell [17]): 0.817%
- Activity (Epithelial cell [18]): 3.74%
- Activity (Rattus norvegicus [3]): Active
- Activity (Epithelial cell [19]): Active
- Activity (Epithelial cell [20]): Active
- Activity (Rattus norvegicus [4]): Active
- Activity (Rattus norvegicus [5]): Active
- Activity (Epithelial cell [21]): Active
- Activity (Rattus norvegicus [6]): Active
- Activity (Rattus norvegicus [7]): Active
- Activity (Epithelial cell [22]): 84%
- Activity (Epithelial cell [23]): 3.7%
- Activity (Epithelial cell [24]): Active
- Activity (Epithelial cell [25]): Active
- Activity (Rattus norvegicus [8]): Active
- Activity (Epithelial cell [26]): 3.27%
- Activity (Rattus norvegicus [9]): Active
- Activity (Rattus norvegicus [10]): Active
- Activity (Epithelial cell [27]): Active
- Activity (Rattus norvegicus [11]): Active
- Activity (Rattus norvegicus [12]): Active
- Activity (Epithelial cell [28]): Active
- Activity (Epithelial cell [29]): Active
- viability at 40 µM (Epithelial cell [30]): 84.7%
- Activity (Rattus norvegicus [13]): Active
- Activity (Epithelial cell [31]): 21.3%
- Activity (Epithelial cell [32]): 1.03%
- Activity (Rattus norvegicus [14]): Active
- Activity (Epithelial cell [33]): Active
- Activity (Epithelial cell [34]): Active
- Activity (Epithelial cell [35]): 11%
- Activity (Epithelial cell [36]): 11.5%
- Activity (Epithelial cell [37]): Active
- Activity (Epithelial cell [38]): 74.3%
- Activity (Rattus norvegicus [15]): Active
